Reference: US5591714A, “Derivatives of A82846” (priority 1994, dated 1997)
In brackets after ≈: the same amount, converted by molar mass.

How the values were obtained:
[1] = tested on: Streptococcus pneumoniae; test: In vivo activity, experimentally infected mice (ED50); conditions: Streptococcus pneumoniae infection; doses administered subcutaneously to mice 1 and 4 hours postinfection
[2] = tested on: Enterococcus faecium X66; test: MIC, standard agar-dilution assay; format: cell-based
Experimental: (§1) The formula I compounds have in vitro and in vivo activity against Gram-positive pathogenic bacteria. The MIC's were determined using a standard agar-dilution assays.
^b Formerly Streptococcus faecium X66

[3] = tested on: Klebsiella pneumoniae KAE; test: MIC, standard agar-dilution assay; format: cell-based
Experimental: as §1

[4] = tested on: Streptococcus pyogenes C203; test: MIC, standard agar-dilution assay; format: cell-based
Experimental: as §1

[5] = tested on: Staphylococcus aureus X400; test: MIC, standard agar-dilution assay; format: cell-based
Experimental: as §1

[6] = tested on: Klebsiella pneumoniae X68; test: MIC, standard agar-dilution assay; format: cell-based
Experimental: as §1

[7] = tested on: Staphylococcus epidermidis EPI270; test: MIC, standard agar-dilution assay; format: cell-based
Experimental: as §1

[8] = tested on: Klebsiella pneumoniae X26; test: MIC, standard agar-dilution assay; format: cell-based
Experimental: as §1

[9] = tested on: Escherichia coli N10; test: MIC, standard agar-dilution assay; format: cell-based
Experimental: as §1

[10] = tested on: Haemophilus influenzae C.L.; test: MIC, standard agar-dilution assay; format: cell-based
Experimental: as §1

[11] = tested on: Staphylococcus aureus V41; test: MIC, standard agar-dilution assay; format: cell-based
Experimental: as §1

[12] = tested on: Haemophilus influenzae 76; test: MIC, standard agar-dilution assay; format: cell-based
Experimental: as §1

[13] = tested on: Escherichia coli TEM; test: MIC, standard agar-dilution assay; format: cell-based
Experimental: as §1

[14] = tested on: Staphylococcus aureus NRRL X1.1; test: MIC, standard agar-dilution assay; format: cell-based
Experimental: as §1

[15] = tested on: Staphylococcus epidermidis 222; test: MIC, standard agar-dilution assay; format: cell-based
Experimental: as §1

[16] = tested on: Escherichia coli EC14; test: MIC, standard agar-dilution assay; format: cell-based
Experimental: as §1

[17] = tested on: Staphylococcus aureus S13E; format: cell-based
Experimental: as §1

[18] = tested on: Streptococcus pneumoniae Park 1; format: cell-based
Experimental: as §1

[19] = tested on: Staphylococcus aureus; test: In vivo activity, experimentally infected mice (ED50); conditions: Staphylococcus aureus infection; doses administered subcutaneously to mice 1 and 4 hours postinfection
[20] = tested on: Streptococcus pyogenes; test: as above; conditions: Streptococcus pyogenes infection; doses administered subcutaneously to mice 1 and 4 hours postinfection
[21] = tested on: Enterococcus faecalis 2041; test: MIC, standard agar-dilution assay; format: cell-based
Experimental: as §1
^c Formerly Streptococcus faecalis 2041

SMILES	ED50 [1]	MIC [2]	MIC [3]	MIC [4]	MIC [5]	MIC [6]	MIC [7]	MIC [8]	MIC [9]	MIC [10]	MIC [11]	MIC [12]	MIC [13]	MIC [14]	MIC [15]	MIC [16]	MIC [17]	MIC [18]	ED50 [19]	ED50 [20]	other results
CCCCCCC(=O)N[C@@]1(C)C[C@H](O[C@H]2[C@H](Oc3c4cc5cc3Oc3ccc(cc3Cl)[C@@H](O)[C@@H](NC(=O)[C@@H](CC(C)C)NC)C(=O)N[C@@H](CC(N)=O)C(=O)N[C@H]5C(=O)N[C@H]3C(=O)N[C@H](C(=O)N[C@H](C(=O)O)c5cc(O)cc(O)c5-c5cc3ccc5O)[C@H](O[C@H]3C[C@](C)(N)[C@@H](O)[C@H](C)O3)c3ccc(cc3)O4)O[C@H](CO)[C@@H](O)[C@@H]2O)O[C@@H](C)[C@@H]1O [Compound 27]	0.71 mg/kg/2	2 µg/mL (≈ 1.2 µM)	> 128 µg/mL	.5 µg/mL (≈ 0.299 µM)	1 µg/mL (≈ 0.599 µM)	> 128 µg/mL	2 µg/mL (≈ 1.2 µM)	> 128 µg/mL	> 128 µg/mL	> 128 µg/mL	1 µg/mL (≈ 0.599 µM)	> 128 µg/mL	> 128 µg/mL	1 µg/mL (≈ 0.599 µM)	2 µg/mL (≈ 1.2 µM)	> 128 µg/mL	2 µg/mL (≈ 1.2 µM)	.25 µg/mL (≈ 0.15 µM)	> 1.0 mg/kg/2	0.5 mg/kg/2	MIC [21]: 2 µg/mL (≈ 1.2 µM)
CCCCCN[C@@]1(C)C[C@H](O[C@H]2[C@H](Oc3c4cc5cc3Oc3ccc(cc3Cl)[C@@H](O)[C@@H](NC(=O)[C@@H](CC(C)C)N(C)CCCCC)C(=O)N[C@@H](CC(N)=O)C(=O)N[C@H]5C(=O)N[C@H]3C(=O)N[C@H](C(=O)N[C@H](C(=O)O)c5cc(O)cc(O)c5-c5cc3ccc5O)[C@H](O[C@H]3C[C@](C)(N)[C@@H](O)[C@H](C)O3)c3ccc(cc3)O4)O[C@H](CO)[C@@H](O)[C@@H]2O)O[C@@H](C)[C@@H]1O [Compound 7]	0.98 mg/kg/2	2 µg/mL (≈ 1.18 µM)	> 128 µg/mL	.5 µg/mL (≈ 0.294 µM)	1 µg/mL (≈ 0.589 µM)	> 128 µg/mL	2 µg/mL (≈ 1.18 µM)	> 128 µg/mL	> 128 µg/mL	> 128 µg/mL	1 µg/mL (≈ 0.589 µM)	> 128 µg/mL	> 128 µg/mL	1 µg/mL (≈ 0.589 µM)	1 µg/mL (≈ 0.589 µM)	> 128 µg/mL	1 µg/mL (≈ 0.589 µM)	.5 µg/mL (≈ 0.294 µM)	4.09 mg/kg/2	0.83 mg/kg/2	MIC [21]: 2 µg/mL (≈ 1.18 µM)
CN[C@H](CC(C)C)C(=O)N[C@H]1C(=O)N[C@@H](CC(N)=O)C(=O)N[C@H]2C(=O)N[C@H]3C(=O)N[C@H](C(=O)N[C@H](C(=O)O)c4cc(O)cc(O)c4-c4cc3ccc4O)[C@H](O[C@H]3C[C@](C)(N)[C@@H](O)[C@H](C)O3)c3ccc(cc3)Oc3cc2cc(c3O[C@@H]2O[C@H](CO)[C@@H](O)[C@H](O)[C@H]2O[C@H]2C[C@](C)(NCc3ccccc3)[C@@H](O)[C@H](C)O2)Oc2ccc(cc2Cl)[C@H]1O [Compound 10]	0.4 mg/kg/2	.25 µg/mL (≈ 0.152 µM)	> 128 µg/mL	.25 µg/mL (≈ 0.152 µM)	.5 µg/mL (≈ 0.303 µM)	> 128 µg/mL	.25 µg/mL (≈ 0.152 µM)	> 128 µg/mL	> 128 µg/mL	> 128 µg/mL	.25 µg/mL (≈ 0.152 µM)	> 128 µg/mL	> 128 µg/mL	.25 µg/mL (≈ 0.152 µM)	.25 µg/mL (≈ 0.152 µM)	> 128 µg/mL	.125 µg/mL (≈ 0.0758 µM)	.125 µg/mL (≈ 0.0758 µM)	0.46 mg/kg/2	0.2 mg/kg/2	MIC [21]: .5 µg/mL (≈ 0.303 µM)
CNC(CC(C)C)C(=O)NC1C(=O)NC(CC(N)=O)C(=O)NC2C(=O)NC3C(=O)NC(C(=O)NC(C(=O)O)c4cc(O)cc(O)c4-c4cc3ccc4O)C(OC3CC(C)(NCc4ccccc4)C(O)C(C)O3)c3ccc(cc3)Oc3cc2cc(c3OC2OC(CO)C(O)C(O)C2O)Oc2ccc(cc2Cl)C1O (stereo not drawn) [Compound 70]	3.76 mg/kg/2	2 µg/mL (≈ 1.33 µM)	> 128 µg/mL	2 µg/mL (≈ 1.33 µM)	2 µg/mL (≈ 1.33 µM)	> 128 µg/mL	.5 µg/mL (≈ 0.332 µM)	> 128 µg/mL	> 128 µg/mL	> 128 µg/mL	2 µg/mL (≈ 1.33 µM)	> 128 µg/mL	> 128 µg/mL	2 µg/mL (≈ 1.33 µM)	2 µg/mL (≈ 1.33 µM)	> 128 µg/mL	2 µg/mL (≈ 1.33 µM)	2 µg/mL (≈ 1.33 µM)	4.10 mg/kg/2	2.38 mg/kg/2	MIC [21]: 2 µg/mL (≈ 1.33 µM)
CN[C@H](CC(C)C)C(=O)N[C@H]1C(=O)N[C@@H](CC(N)=O)C(=O)N[C@H]2C(=O)N[C@H]3C(=O)N[C@H](C(=O)N[C@H](C(=O)O)c4cc(O)cc(O)c4-c4cc3ccc4O)[C@H](O[C@H]3C[C@](C)(N)[C@@H](O)[C@H](C)O3)c3ccc(cc3)Oc3cc2cc(c3O[C@@H]2O[C@H](CO)[C@@H](O)[C@H](O)[C@H]2O[C@H]2C[C@](C)(NCc3ccc(Br)cc3)[C@@H](O)[C@H](C)O2)Oc2ccc(cc2Cl)[C@H]1O [Compound 18]	0.25 mg/kg/2	1 µg/mL (≈ 0.579 µM)	> 128 µg/mL	.125 µg/mL (≈ 0.0724 µM)	1 µg/mL (≈ 0.579 µM)	> 128 µg/mL	1 µg/mL (≈ 0.579 µM)	> 128 µg/mL	> 128 µg/mL	> 128 µg/mL	1 µg/mL (≈ 0.579 µM)	> 128 µg/mL	> 128 µg/mL	1 µg/mL (≈ 0.579 µM)	.5 µg/mL (≈ 0.29 µM)	> 128 µg/mL	1 µg/mL (≈ 0.579 µM)	.25 µg/mL (≈ 0.145 µM)	1.74 mg/kg/2	0.15 mg/kg/2	MIC [21]: 1 µg/mL (≈ 0.579 µM)
CN[C@H](CC(C)C)C(=O)N[C@H]1C(=O)N[C@@H](CC(N)=O)C(=O)N[C@H]2C(=O)N[C@H]3C(=O)N[C@H](C(=O)N[C@H](C(=O)O)c4cc(O)cc(O)c4-c4cc3ccc4O)[C@H](O[C@H]3C[C@](C)(N)[C@@H](O)[C@H](C)O3)c3ccc(cc3)Oc3cc2cc(c3O[C@@H]2O[C@H](CO)[C@@H](O)[C@H](O)[C@H]2O[C@H]2C[C@](C)(NCCc3ccccc3)[C@@H](O)[C@H](C)O2)Oc2ccc(cc2Cl)[C@H]1O [Compound 24]	0.25 mg/kg/2	.5 µg/mL (≈ 0.301 µM)	> 128 µg/mL	.25 µg/mL (≈ 0.15 µM)	1 µg/mL (≈ 0.602 µM)	> 128 µg/mL	.5 µg/mL (≈ 0.301 µM)	> 128 µg/mL	> 128 µg/mL	> 128 µg/mL	.5 µg/mL (≈ 0.301 µM)	> 128 µg/mL	> 128 µg/mL	.5 µg/mL (≈ 0.301 µM)	.5 µg/mL (≈ 0.301 µM)	> 128 µg/mL	1 µg/mL (≈ 0.602 µM)	.25 µg/mL (≈ 0.15 µM)	0.72 mg/kg/2	0.09 mg/kg/2	MIC [21]: .5 µg/mL (≈ 0.301 µM)
CNC(CC(C)C)C(=O)NC1C(=O)NC(CC(N)=O)C(=O)NC2C(=O)NC3C(=O)NC(C(=O)NC(C(=O)O)c4cc(O)cc(O)c4-c4cc3ccc4O)C(OC3CC(C)(N)C(O)C(C)O3)c3ccc(c(Cl)c3)Oc3cc2cc(c3OC2OC(CO)C(O)C(O)C2OC2CC(C)(NCc3ccccc3Cl)C(O)C(C)O2)Oc2ccc(cc2Cl)C1O (stereo not drawn) [Compound 62]	0.17 mg/kg/2	.25 µg/mL (≈ 0.146 µM)	> 128 µg/mL	.125 µg/mL (≈ 0.0728 µM)	1 µg/mL (≈ 0.582 µM)	> 128 µg/mL	1 µg/mL (≈ 0.582 µM)	> 128 µg/mL	> 128 µg/mL	> 128 µg/mL	.5 µg/mL (≈ 0.291 µM)	> 128 µg/mL	> 128 µg/mL	.5 µg/mL (≈ 0.291 µM)	.5 µg/mL (≈ 0.291 µM)	> 128 µg/mL	1 µg/mL (≈ 0.582 µM)	.125 µg/mL (≈ 0.0728 µM)	0.77 mg/kg/2	0.20 mg/kg/2	MIC [21]: .5 µg/mL (≈ 0.291 µM)
